# ChEMBL document CHEMBL4229345, “Inhibition of trypanosome alternative oxidase without its N-terminal mitochondrial targeting signal (ΔMTS-TAO) by cationic and non-cationic 4-hydroxybenzoate and 4-alkoxybenzaldehyde derivatives active against T. brucei and T. congolense” (Eur J Med Chem, 2018)
# System: Trypanosoma congolense
# Test: Anti-parasitic activity against bloodstream form of Trypanosoma congolense IL3000 after 48 hrs by resazurin-based assay
# Format: functional, organism-based
# Details: IL3000, 48 h
row,SMILES,EC50 [µM]
1,O=Cc1ccc(OCCCCCCCCCCCCCC[n+]2cccc3ccccc32)cc1O.[Br-],2.1
2,O=Cc1ccc(OCCCCCCCCCCCCCCOc2ccc(C=O)c(O)c2)cc1O,400
3,O=C(OCCCCCCCCCCCCCCBr)c1ccc(O)cc1F,> 50
4,O=Cc1ccc(OCCCCCCCCCCCCCCBr)cc1O,42.6
5,Cc1cc(O)ccc1C(=O)OCCCCCCCCCCCCCCOC(=O)c1ccc(O)cc1C,400
6,N=C(N)c1ccc(/N=N/Nc2ccc(C(=N)N)cc2)cc1 [DIMINAZENE],0.2
7,O=C(OCCCCCCBr)c1ccc(O)cc1O,72.9
8,Cc1cc(O)cc(O)c1C(=O)OCCCCCCCCCCCCCCBr,> 100

# System: not listed separately
# Test: Selectivity index, ratio of CC50 for HEK cells to EC50 for bloodstream trypomastigote stage of wild-type Trypanosoma brucei brucei Lister 427
# Format: toxicity
# Details: human, read-out: Ratio CC50/EC50
row,SMILES,selectivity ratio
1,O=COCCCCCCCCCCOC(=O)c1ccc(O)cc1O,> 12

# System: Trypanosoma brucei brucei
# Test: Anti-parasitic activity against bloodstream trypomastigote stage of wild-type Trypanosoma brucei brucei Lister 427 after 48 hrs in presence of 5 mM glycerol by resazurin-based assay
# Format: functional, organism-based
# Details: Lister 427, 48 h
row,SMILES,EC50 [µM]
1,O=Cc1ccc(OCCCCCCCCCCCCCC[n+]2cccc3ccccc32)cc1O.[Br-],1.23
2,O=COCCCCCCCCCCOC(=O)c1ccc(O)cc1O,17.5
3,O=Cc1ccc(OCCCCCCCCCCCCCCOc2ccc(C=O)c(O)c2)cc1O,400
4,O=C(OCCCCCCCCCCCCCCBr)c1ccc(O)cc1F,7.19
5,O=Cc1ccc(OCCCCCCCCCCCCCCBr)cc1O,10.7
6,Cc1cc(O)ccc1C(=O)OCCCCCCCCCCCCCCOC(=O)c1ccc(O)cc1C,400
7,O=C(OCCCCCCBr)c1ccc(O)cc1O,12.1
8,O=C(OCCCCBr)c1ccc(O)cc1O,400
9,O=COCCCCCCCCCCCCCCOc1ccc(C=O)c(O)c1,1.8
10,Cc1cc(O)cc(O)c1C(=O)OCCCCCCCCCCCCCCBr,7.71

# System: Trypanosoma brucei brucei
# Test: Resistance factor, ratio of EC50 for bloodstream trypomastigote stage of wild-type Trypanosoma brucei brucei Lister 427 in presence of 5 mM glycerol to EC50 for bloodstream trypomastigote stage of wild-type Trypanosoma brucei brucei Lister 427
# Format: functional
# Details: not given
row,SMILES,Ratio EC50
1,O=Cc1ccc(OCCCCCCCCCCCCCC[n+]2cccc3ccccc32)cc1O.[Br-],0.7
2,O=COCCCCCCCCCCOC(=O)c1ccc(O)cc1O,0.55
3,O=C(OCCCCCCCCCCCCCCBr)c1ccc(O)cc1F,0.49
4,O=Cc1ccc(OCCCCCCCCCCCCCCBr)cc1O,0.61
5,O=C(OCCCCCCBr)c1ccc(O)cc1O,0.68
6,O=COCCCCCCCCCCCCCCOc1ccc(C=O)c(O)c1,0.48
7,Cc1cc(O)cc(O)c1C(=O)OCCCCCCCCCCCCCCBr,0.53

# System: not listed separately
# Test: Cytotoxicity against HEK cells assessed as reduction in cell viability after 30 hrs by resazurin-based assay
# Details: human
row,SMILES,CC50 at 30 h [µM]
1,O=COCCCCCCCCCCOC(=O)c1ccc(O)cc1O,> 400

# System: Trypanosoma brucei
# Test: Anti-parasitic activity against bloodstream trypomastigote stage of pentamidine/diminazene/melaminophenyl arsenical resistant Trypanosoma brucei B48 after 48 hrs by resazurin-based assay
# Format: functional, organism-based
# Details: B48, 48 h
row,SMILES,EC50 [µM]
1,O=Cc1ccc(OCCCCCCCCCCCCCC[n+]2cccc3ccccc32)cc1O.[Br-],2.35
2,O=Cc1ccc(OCCCCCCCCCCCCCCOc2ccc(C=O)c(O)c2)cc1O,400
3,O=C(OCCCCCCCCCCCCCCBr)c1ccc(O)cc1F,17.3
4,O=Cc1ccc(OCCCCCCCCCCCCCCBr)cc1O,15.5
5,Cc1cc(O)ccc1C(=O)OCCCCCCCCCCCCCCOC(=O)c1ccc(O)cc1C,400
6,O=C(OCCCCCCBr)c1ccc(O)cc1O,20.5
7,O=C(OCCCCBr)c1ccc(O)cc1O,400
8,O=COCCCCCCCCCCCCCCOc1ccc(C=O)c(O)c1,3.6
9,Cc1cc(O)cc(O)c1C(=O)OCCCCCCCCCCCCCCBr,15.6

# System: Trypanosoma brucei brucei
# Test: Resistance factor, ratio of EC50 for bloodstream trypomastigote stage of Trypanosoma brucei brucei AQP triple knock out to EC50 for bloodstream trypomastigote stage of wild-type Trypanosoma brucei brucei Lister 427
# Format: functional
# Details: not given
row,SMILES,Ratio EC50
1,O=Cc1ccc(OCCCCCCCCCCCCCC[n+]2cccc3ccccc32)cc1O.[Br-],0.62
2,O=COCCCCCCCCCCOC(=O)c1ccc(O)cc1O,0.49
3,O=C(OCCCCCCCCCCCCCCBr)c1ccc(O)cc1F,0.48
4,O=Cc1ccc(OCCCCCCCCCCCCCCBr)cc1O,0.45
5,O=C(OCCCCCCBr)c1ccc(O)cc1O,0.68
6,O=COCCCCCCCCCCCCCCOc1ccc(C=O)c(O)c1,0.48
7,Cc1cc(O)cc(O)c1C(=O)OCCCCCCCCCCCCCCBr,0.47

# System: Trypanosoma brucei brucei
# Test: Anti-parasitic activity against bloodstream trypomastigote stage of Trypanosoma brucei brucei with AQP2/3-dd knock out after 48 hrs by resazurin-based assay
# Format: functional, organism-based
# Details: not given
row,SMILES,EC50 [µM]
1,O=Cc1ccc(OCCCCCCCCCCCCCC[n+]2cccc3ccccc32)cc1O.[Br-],0.95
2,O=COCCCCCCCCCCOC(=O)c1ccc(O)cc1O,27.4
3,O=Cc1ccc(OCCCCCCCCCCCCCCOc2ccc(C=O)c(O)c2)cc1O,400
4,O=C(OCCCCCCCCCCCCCCBr)c1ccc(O)cc1F,6.8
5,O=Cc1ccc(OCCCCCCCCCCCCCCBr)cc1O,8.4
6,Cc1cc(O)ccc1C(=O)OCCCCCCCCCCCCCCOC(=O)c1ccc(O)cc1C,400
7,O=C(OCCCCCCBr)c1ccc(O)cc1O,11.6
8,O=C(OCCCCBr)c1ccc(O)cc1O,400
9,O=COCCCCCCCCCCCCCCOc1ccc(C=O)c(O)c1,1.4
10,Cc1cc(O)cc(O)c1C(=O)OCCCCCCCCCCCCCCBr,7.3

# System: Trypanosoma brucei brucei
# Test: Anti-parasitic activity against bloodstream trypomastigote stage of Trypanosoma brucei brucei with AQP triple knock out after 48 hrs by resazurin-based assay
# Format: functional, organism-based
# Details: not given
row,SMILES,EC50 [µM]
1,O=Cc1ccc(OCCCCCCCCCCCCCC[n+]2cccc3ccccc32)cc1O.[Br-],1.08
2,O=COCCCCCCCCCCOC(=O)c1ccc(O)cc1O,15.6
3,O=Cc1ccc(OCCCCCCCCCCCCCCOc2ccc(C=O)c(O)c2)cc1O,400
4,O=C(OCCCCCCCCCCCCCCBr)c1ccc(O)cc1F,7
5,O=Cc1ccc(OCCCCCCCCCCCCCCBr)cc1O,7.9
6,Cc1cc(O)ccc1C(=O)OCCCCCCCCCCCCCCOC(=O)c1ccc(O)cc1C,400
7,O=C(OCCCCCCBr)c1ccc(O)cc1O,12.1
8,O=C(OCCCCBr)c1ccc(O)cc1O,400
9,O=COCCCCCCCCCCCCCCOc1ccc(C=O)c(O)c1,1.82
10,Cc1cc(O)cc(O)c1C(=O)OCCCCCCCCCCCCCCBr,6.8

# System: not listed separately
# Test: Selectivity index, ratio of CC50 for HFF cells to EC50 for bloodstream form of Trypanosoma congolense IL3000
# Format: toxicity
# Details: human, read-out: Ratio CC50/EC50
row,SMILES,selectivity ratio
1,O=Cc1ccc(OCCCCCCCCCCCCCC[n+]2cccc3ccccc32)cc1O.[Br-],> 95
2,O=Cc1ccc(OCCCCCCCCCCCCCCBr)cc1O,> 4.6
3,O=C(OCCCCCCBr)c1ccc(O)cc1O,> 2.7

# System: not listed separately
# Test: Resistance factor, ratio of EC50 for bloodstream trypomastigote stage of pentamidine/diminazene/melaminophenyl arsenical resistant Trypanosoma brucei B48 to EC50 for bloodstream trypomastigote stage of wild-type Trypanosoma brucei brucei Lister 427
# Format: functional
# Details: not given
row,SMILES,Ratio EC50
1,O=Cc1ccc(OCCCCCCCCCCCCCC[n+]2cccc3ccccc32)cc1O.[Br-],1.3
2,O=COCCCCCCCCCCOC(=O)c1ccc(O)cc1O,0.69
3,O=C(OCCCCCCCCCCCCCCBr)c1ccc(O)cc1F,1.2
4,O=Cc1ccc(OCCCCCCCCCCCCCCBr)cc1O,0.9
5,N=C(N)c1ccc(/N=N/Nc2ccc(C(=N)N)cc2)cc1 [DIMINAZENE],12
6,O=C(OCCCCCCBr)c1ccc(O)cc1O,1.2
7,O=COCCCCCCCCCCCCCCOc1ccc(C=O)c(O)c1,1
8,Cc1cc(O)cc(O)c1C(=O)OCCCCCCCCCCCCCCBr,1.1

# System: Trypanosoma brucei brucei
# Test: Resistance factor, ratio of EC50 for bloodstream trypomastigote stage of Trypanosoma brucei brucei with AQP2/3-dd knock out to EC50 for bloodstream trypomastigote stage of wild-type Trypanosoma brucei brucei Lister 427
# Format: functional
# Details: not given
row,SMILES,Ratio EC50
1,O=Cc1ccc(OCCCCCCCCCCCCCC[n+]2cccc3ccccc32)cc1O.[Br-],0.54
2,O=COCCCCCCCCCCOC(=O)c1ccc(O)cc1O,0.86
3,O=C(OCCCCCCCCCCCCCCBr)c1ccc(O)cc1F,0.46
4,O=Cc1ccc(OCCCCCCCCCCCCCCBr)cc1O,0.48
5,O=C(OCCCCCCBr)c1ccc(O)cc1O,0.65
6,O=COCCCCCCCCCCCCCCOc1ccc(C=O)c(O)c1,0.38
7,Cc1cc(O)cc(O)c1C(=O)OCCCCCCCCCCCCCCBr,0.5

# System: not listed separately
# Test: Selectivity index, ratio of CC50 for HFF cells to EC50 for bloodstream trypomastigote stage of wild-type Trypanosoma brucei brucei Lister 427
# Format: toxicity
# Details: human, read-out: Ratio CC50/EC50
row,SMILES,selectivity ratio
1,O=Cc1ccc(OCCCCCCCCCCCCCC[n+]2cccc3ccccc32)cc1O.[Br-],> 114
2,O=C(OCCCCCCCCCCCCCCBr)c1ccc(O)cc1F,> 13
3,O=Cc1ccc(OCCCCCCCCCCCCCCBr)cc1O,> 11
4,O=C(OCCCCCCBr)c1ccc(O)cc1O,> 11
5,O=COCCCCCCCCCCCCCCOc1ccc(C=O)c(O)c1,> 52
6,Cc1cc(O)cc(O)c1C(=O)OCCCCCCCCCCCCCCBr,> 13

# System: not listed separately
# Test: Cytotoxicity against HFF cells assessed as reduction in cell viability after 30 hrs by resazurin-based assay
# Details: human
row,SMILES,CC50 at 30 h [µM]
1,O=Cc1ccc(OCCCCCCCCCCCCCC[n+]2cccc3ccccc32)cc1O.[Br-],> 200
2,O=Cc1ccc(OCCCCCCCCCCCCCCOc2ccc(C=O)c(O)c2)cc1O,> 200
3,O=C(OCCCCCCCCCCCCCCBr)c1ccc(O)cc1F,> 200
4,O=Cc1ccc(OCCCCCCCCCCCCCCBr)cc1O,> 200
5,Cc1cc(O)ccc1C(=O)OCCCCCCCCCCCCCCOC(=O)c1ccc(O)cc1C,> 200
6,O=C(OCCCCCCBr)c1ccc(O)cc1O,> 200
7,O=C(OCCCCBr)c1ccc(O)cc1O,> 200
8,O=COCCCCCCCCCCCCCCOc1ccc(C=O)c(O)c1,> 200
9,Cc1cc(O)cc(O)c1C(=O)OCCCCCCCCCCCCCCBr,> 200

# System: Trypanosoma brucei brucei
# Test: Anti-parasitic activity against bloodstream trypomastigote stage of wild-type Trypanosoma brucei brucei Lister 427 after 48 hrs by resazurin-based assay
# Format: functional, organism-based
# Details: Lister 427, 48 h
row,SMILES,EC50 [µM]
1,O=Cc1ccc(OCCCCCCCCCCCCCC[n+]2cccc3ccccc32)cc1O.[Br-],1.75
2,O=Cc1ccc(OCCCCCCCCCCCCCCOc2ccc(C=O)c(O)c2)cc1O,400
3,O=C(OCCCCCCCCCCCCCCBr)c1ccc(O)cc1F,14.7
4,O=Cc1ccc(OCCCCCCCCCCCCCCBr)cc1O,17.6
5,Cc1cc(O)ccc1C(=O)OCCCCCCCCCCCCCCOC(=O)c1ccc(O)cc1C,400
6,O=C(OCCCCCCBr)c1ccc(O)cc1O,17.7
7,O=C(OCCCCBr)c1ccc(O)cc1O,400
8,O=COCCCCCCCCCCCCCCOc1ccc(C=O)c(O)c1,3.8
9,Cc1cc(O)cc(O)c1C(=O)OCCCCCCCCCCCCCCBr,14.6

# System: not listed separately
# Test: Inhibition of recombinant N-terminal His6 tagged SUMO-fused Trypanosoma brucei brucei TC221 TAO MTS deletion mutant expressed in Escherichia coli FN102 preincubated for 2 mins followed by ubiquinol-1 addition measured over 2 mins by double beam-dual wavelength UV-spectrophotometry
# Details: not given
row,SMILES,IC50 [µM]
1,O=Cc1ccc(OCCCCCCCCCCCCCC[n+]2cccc3ccccc32)cc1O.[Br-],1.23
2,O=COCCCCCCCCCCOC(=O)c1ccc(O)cc1O,0.15
3,O=Cc1ccc(OCCCCCCCCCCCCCCOc2ccc(C=O)c(O)c2)cc1O,0.24
4,O=C(OCCCCCCCCCCCCCCBr)c1ccc(O)cc1F,0.03
5,O=Cc1ccc(OCCCCCCCCCCCCCCBr)cc1O,0.073
6,Cc1cc(O)ccc1C(=O)OCCCCCCCCCCCCCCOC(=O)c1ccc(O)cc1C,0.013
7,O=C(OCCCCCCBr)c1ccc(O)cc1O,0.24
8,O=C(OCCCCBr)c1ccc(O)cc1O,0.45
9,O=COCCCCCCCCCCCCCCOc1ccc(C=O)c(O)c1,0.33
10,Cc1cc(O)cc(O)c1C(=O)OCCCCCCCCCCCCCCBr,0.007
